#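 All cell lines were grown in 96-well plates and treated with compound for 48 hours. At the GI50, growth is halved.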 Calls of active or inactive are those of the source. Rule as the data show it: active = GI50 up to about 1.1 µM and inactive = higher.
# Key:
# Experiment in all cases: inhibition of tumour cell growth, NCI panel, 48 h
# TK-10 = system: TK-10
# LOX IMVI = system: LOX IMVI
# SK-MEL-2 = system: SK-MEL-2
# K562 = system: K562
# COLO 205 = system: COLO 205
# SF-539 = system: SF-539
# ACHN = system: ACHN
# M14 = system: M14
# SW-620 = system: SW-620
# SK-MEL-5 = system: SK-MEL-5
# UACC-257 = system: UACC-257
# A498 = system: A498
# NCI-H23 = system: NCI-H23
# OVCAR-8 = system: OVCAR-8
# NCI/ADR-RES = system: NCI/ADR-RES
# HT-29 = system: HT-29
# HL-60 = system: HL-60
# CCRF-CEM = system: CCRF-CEM
# UACC-62 = system: UACC-62
# RXF 393 = system: RXF 393
Structure (SMILES),GI50 (TK-10),GI50 (LOX IMVI),GI50 (SK-MEL-2),GI50 (K562),GI50 (COLO 205),GI50 (SF-539),GI50 (ACHN),GI50 (M14),GI50 (SW-620),GI50 (SK-MEL-5),GI50 (UACC-257),GI50 (A498),GI50 (NCI-H23),GI50 (OVCAR-8),GI50 (NCI/ADR-RES),GI50 (HT-29),GI50 (HL-60),GI50 (CCRF-CEM),GI50 (UACC-62),GI50 (RXF 393)
c1ccc2c(c1)[nH]c1c2cc[n+]2cc3c(cc12)CCCC3,6.68 µM (inactive),2.39 µM (inactive),1.63 µM (inactive),1.6 µM (inactive),0.38 µM (active),1.64 µM (inactive),3.75 µM (inactive),2.3 µM (inactive),2.1 µM (inactive),1.54 µM (inactive),4.09 µM (inactive),5.38 µM (inactive),2.24 µM (inactive),2.42 µM (inactive),44.6 µM (inactive),3.28 µM (inactive),,,,
CSc1nncc2[nH]c(C)nc12,> 100 µM (inactive),> 100 µM (inactive),> 100 µM (inactive),> 100 µM (inactive),> 100 µM (inactive),> 100 µM (inactive),> 100 µM (inactive),> 100 µM (inactive),> 100 µM (inactive),> 100 µM (inactive),> 100 µM (inactive),> 100 µM (inactive),> 100 µM (inactive),> 100 µM (inactive),> 100 µM (inactive),> 100 µM (inactive),> 100 µM (inactive),> 100 µM (inactive),> 100 µM (inactive),
COC1OC(C(C)O)C2OC(C)(C)OC12 (configuration not stated),> 100 µM (inactive),> 100 µM (inactive),> 100 µM (inactive),> 100 µM (inactive),> 100 µM (inactive),> 100 µM (inactive),> 100 µM (inactive),> 100 µM (inactive),> 100 µM (inactive),> 100 µM (inactive),> 100 µM (inactive),> 100 µM (inactive),> 100 µM (inactive),> 100 µM (inactive),> 100 µM (inactive),> 100 µM (inactive),> 100 µM (inactive),> 100 µM (inactive),> 100 µM (inactive),
CSC1=N/C(=C\c2ccc(C)cc2)C(=O)N1CN1CCCCC1,> 100 µM (inactive),34.3 µM (inactive),> 100 µM (inactive),74 µM (inactive),73.1 µM (inactive),,59.6 µM (inactive),> 100 µM (inactive),44.7 µM (inactive),> 100 µM (inactive),,> 100 µM (inactive),> 100 µM (inactive),> 100 µM (inactive),84.7 µM (inactive),38.5 µM (inactive),,,> 100 µM (inactive),
O=C(O)CC(O)(C(=O)O)C(O)C(=O)O (configuration not stated),> 1000 µM (inactive),440 µM (inactive),> 1000 µM (inactive),> 1000 µM (inactive),> 1000 µM (inactive),> 1000 µM (inactive),> 1000 µM (inactive),> 1000 µM (inactive),> 1000 µM (inactive),247 µM (inactive),> 1000 µM (inactive),,> 1000 µM (inactive),> 1000 µM (inactive),> 1000 µM (inactive),> 1000 µM (inactive),> 1000 µM (inactive),> 1000 µM (inactive),933 µM (inactive),> 1 mM (inactive)
CCOP(=O)(OCC)C(C)(CC)N/C(N)=N/C#N (configuration not stated),> 100 µM (inactive),> 100 µM (inactive),> 100 µM (inactive),> 100 µM (inactive),> 100 µM (inactive),> 100 µM (inactive),> 100 µM (inactive),> 100 µM (inactive),> 100 µM (inactive),> 100 µM (inactive),> 100 µM (inactive),,> 100 µM (inactive),> 100 µM (inactive),> 100 µM (inactive),> 100 µM (inactive),> 100 µM (inactive),> 100 µM (inactive),> 100 µM (inactive),> 0.1 mM (inactive)

# — ChEMBL document CHEMBL1201862, “PubChem BioAssay data set” (2004)
